Data on two compounds can be found in PMC5118228 (EJNMMI Research, 2016).

The subject of one data set is nontumor-bearing mice. In kind it is in vivo. The conditions noted are these: control, 4 × 0.3 nmol unlabeled DOTATATE; nontumor-bearing mice; n=8. The protocol:
MTD was defined as the highest dose given to the animals allowing 100% survival with no significant weight loss >15% throughout the experiment. Nontumor-bearing mice were randomly divided into seven cohorts used to evaluate MTD, six treatments and one control (n = 8/cohort); see Table 1. […] Control mice received DOTATATE (4 × 0.3 nmol) on four consecutive days. The animals were followed for 90 days. Serum was analyzed for the biomarker neutrophil gelatinase-associated lipocalin (NGAL) using ELISA (R&D Systems, 450 nm).

In the next data set the test system is patients. Conditions: in vivo; cited from earlier work. The text has this: Radiolabeled somatostatin analogs are known to accumulate in the renal proximal tubules, due to their net charge, electrostatic forces, and charge distribution from metal-chelation. This can result in a high absorbed dose and subsequent renal dysfunction.

Regarding `C[C@@H](O)[C@H](NC(=O)[C@@H]1CSSC[C@H](NC(=O)[C@@H](Cc2ccccc2)NC(=O)CN2CCN(CC(=O)O)CCN(CC(=O)O)CCN(CC(=O)O)CC2)C(=O)N[C@@H](Cc2ccc(O)cc2)C(=O)N[C@H](Cc2c[nH]c3ccccc23)C(=O)N[C@@H](CCCCN)C(=O)N[C@@H]([C@@H](C)O)C(=O)N1)C(=O)O` [DOTATATE], the “survival at 90 days post-treatment” value with nontumor-bearing mice was “all control animals survived”.

`C[C@@H](O)[C@H](NC(=O)[C@@H]1CSSC[C@H](NC(=O)[C@@H](Cc2ccccc2)NC(=O)CN2CCN(CC(=O)[O-])CCN(CC(=O)[O-])CCN(CC(=O)[O-])CC2)C(=O)N[C@@H](Cc2ccc(O)cc2)C(=O)N[C@H](Cc2c[nH]c3ccccc23)C(=O)N[C@@H](CCCCN)C(=O)N[C@@H]([C@@H](C)O)C(=O)N1)C(=O)O.[177Lu+3]` [^177Lu-DOTATATE, ^177Lu-[DOTA^0,Tyr^3]octreotate]: the “reduction of renal uptake by co-infusion of L-lysine/L-arginine” value in the data set on patients was 30–50%.
